Results taken from patent publication US11154589B2, “Antimicrobial composition combinations comprising star shaped peptide polymers” (The University of Melbourne, priority 2016, dated 2021).
≈ marks a conversion by molar mass, not a printed value. Like-named read-outs stand apart in the source and are kept apart here. Marks after values point to notes of the source that are not given here.

Columns and labels:
[1] = test system: CMDR A. baumannii (FADDI-AB156); assay: Antibiogram of CMDR A. baumannii (MIC); format: cell-based, Acinetobacter baumannii; settings: for Susceptibility: interpreted by CLSI resistant breakpoints
[2] = test system: CMDR P. aeruginosa (FADDI-PA067); assay: Antibiogram of CMDR P. aeruginosa; format: cell-based, Pseudomonas aeruginosa; settings: for Susceptibility: interpreted by CLSI resistant breakpoints
[3] = test system: CMDR P. aeruginosa (FADDI-PA067); assay: S16-antibiotic co-administration, synergy by Bliss Independence and HSA models; format: cell-based, Pseudomonas aeruginosa; settings: for MBC in combination: S16 and antibiotic co-administered, each at MBC50, 3 h
Protocol: (§1) The 96-well plate was then incubated at 37° C. for 1.5 or 3 h. For each well, microbial solution was diluted with saline (0.9% NaCl solution) using an appropriate dilution factor and placed on a LB agar plate (LB broth containing 15 g/L Oxoid Blood Agar Base No. 2). For E. coli, K. pneumoniae, and A. Baumannii (ATCC 19606 and FADDI-AB156), the agar plates were incubated overnight at room temperature, and then at 37° C. with aeration for 2 h. For P. Aeruginosa (ATCC 47085 and FADDI-PA067), the agar plates were incubated at 37° C. with aeration. The number of colony-forming units (CFU) was counted and expressed as CFU/mL. Positive controls consisting of cells without any treatment were used. […] A minimum of two independent experiments (biological replicates) of the assay were conducted and three technical replicates were used in each experiment. Data is expressed as mean±standard deviation (SD) and analysed using student's t-test.
(§2) The Bliss Independence and HSA models were used to calculate drug synergism. […] Biotechnol. 31, 160-165 (2013). With the Bliss Independence model, synergism was calculated using the formula, BICAB=A+B−AB (1), where A and B are the effects of the two drugs in isolation and BICAB is the combined effect of the two drugs as predicted by the Bliss Independence model. […] In the HSA model, if CAB is greater than the greater of A and B, CAB>max(A, B), synergy is observed. The quantitative effect of the compounds when administered alone (i.e., A and B) or in combination (i.e., CAB) was defined as the fractional reduction of the population, R=1−CFUt/CFU0, where CFUt is the CFU/mL measured after treatment, and CFU0 is the CFU/mL measured before treatment.

[4] = test system: Acinetobacter baumannii (A. baumannii, ATCC 19606); assay: as above; format: cell-based; settings: for MBC in combination: S16 and antibiotic co-administered, each at MBC50
Protocol: as §1, §2

[5] = test system: Pseudomonas aeruginosa (P. aeruginosa, ATCC 47085); assay: as above; format: cell-based; settings: for MBC in combination: S16 and antibiotic co-administered, each at MBC50
Protocol: as §1, §2

[6] = test system: CMDR A. baumannii (FADDI-AB156); assay: as above; format: cell-based, Acinetobacter baumannii; settings: for MBC in combination: S16 and antibiotic co-administered, each at MBC50, 3 h
Protocol: as §1, §2

[7] = test system: CMDR P. aeruginosa (FADDI-PA067); assay: MBC determination (in vitro antimicrobial experiment, CFU counting); format: cell-based, Pseudomonas aeruginosa; settings: Pseudomonas aeruginosa, compound alone
Protocol: (§3) Freeze-dried cultures of Escherichia coli (E. coli, ATCC 25922), Klebsiella pneumoniae (K. pneumoniae, ATCC 13883), Pseudomonas aeruginosa (P. aeruginosa, ATCC 47085), Acinetobacter baumannii (A. baumannii, ATCC 19606), colistin and multidrug-resistant (CMDR) A. baumannii (FADDI-AB156), and CMDR P. aeruginosa (FADDI-PA067) were grown aerobically and maintained by passage at ambient temperature on horse blood agar (10% v/v defibrinated horse blood, 4.4% w/v Oxoid Blood Agar Base No. 2). Overnight cultures were made from transferring a colony (ca. half a loop) from the agar plates to culture tubes containing sterilized Luria-Bertani broth (LB, 1% w/v Bacto™ Tryptone, 1% w/v NaCl, 0.5% w/v Oxoid Yeast Extract) (20 mL). Bacterial cultures were incubated overnight at 37° C. with aeration and without agitation, with the exception of the two P. aeruginosa strains (ATCC 47085 and FADDI-PA067) which were cultured at 37° C. with aeration and agitation (150 rpm). On the next day, for E. coli, K. pneumonia, P. aeruginosa (ATCC 47085), and CMDR P. aeruginosa (FADDI-PA067), small aliquots (i.e., 0.5-3 mL) were taken from the culture tubes, further diluted with LB (20 mL), and incubated for 3-4 h at 37° C. with aeration before use. All bacterial cultures were cultured without agitation, with the exception of P. aeruginosa ATCC 47085 and FADDI-PA067 which were cultured with shaking at 150 rpm. For A. baumannii, an aliquot of 0.5 mL was taken from the overnight culture tube, further diluted with LB (200 mL), and incubated overnight at 37° C. with aeration before use.
as §1

[8] = test system: CMDR A. baumannii (FADDI-AB156); assay: as above; format: cell-based, Acinetobacter baumannii; settings: Acinetobacter baumannii, compound alone
Protocol: as §3, §1

[9] = test system: Acinetobacter baumannii (A. baumannii, ATCC 19606); assay: as above; format: cell-based; settings: Acinetobacter baumannii, ATCC19606; compound alone; A. baumannii (wild-type)
Protocol: as §3, §1

[10] = test system: Pseudomonas aeruginosa (P. aeruginosa, ATCC 47085); assay: as above; format: cell-based; settings: Pseudomonas aeruginosa, ATCC47085; compound alone; P. aeruginosa (wild-type)
Protocol: as §3, §1

[11] = Acinetobacter baumannii, CMDR A. baumannii (FADDI-AB156), read-out: MIC
[12] = CMDR A. baumannii (FADDI-AB156)
[13] = antibiotic in combination with S16, 3 h, Bliss Independence model
[14] = antibiotic in combination with S16, 3 h, Highest Single Agent model
[15] = co-administered S16 (at MBC50) and antibiotic, antibiotic concentration giving at least 2-log reduction in CFU/mL, 3 h

## CO[C@@]1(NC(=O)Cc2cccs2)C(=O)N2C(C(=O)O)=C(COC(N)=O)CS[C@@H]21 [Cefoxitin]
[1]; [11]
  MIC: ≥ 150 µM
[1]; [12]
  Susceptibility: Resistant

## CCn1cc(C(=O)O)c(=O)c2ccc(C)nc21 [Nalidixic Acid]
[1]; Acinetobacter baumannii
  MIC: ≥ 138 µM
[1]; [12]
  Susceptibility: Resistant

## CC(C)(O/N=C(\C(=O)N[C@@H]1C(=O)N2C(C(=O)[O-])=C(C[n+]3ccccc3)CS[C@H]12)c1csc(N)n1)C(=O)O [Ceftazidime]
[2]
  Susceptibility: Resistant
[1]; [11]
  MIC: ≥ 117 µM
[1]; [12]
  Susceptibility: Resistant

## NC[C@H]1O[C@H](O[C@H]2[C@H](O)[C@@H](O[C@H]3O[C@H](CO)[C@@H](O)[C@H](N)[C@H]3O)[C@H](N)C[C@@H]2N)[C@H](N)C[C@@H]1O [Tob, tobramycin]
[3]; 3 h time point
  Interaction with S16 as evaluated by the Bliss Independence and HSA models (in words): non-synergistic
[3]
  MBC in combination: 119.7 µM
[3]; all compounds at MBC50, t=3 h
  Antimicrobial activity on co-administration with S16 compared to compounds alone (log change in CFU/mL): antagonistic
[3]; [13]
  Synergistic? (Yes/No) Bliss*: No
[3]; [14]
  Synergistic? (Yes/No) HAS*: No
[4]; A. baumannii wild-type, 3 h time point
  Interaction with S16 as evaluated by the Bliss Independence and HSA models (in words): non-synergistic
[4]; A. baumannii wild-type, all compounds at MBC50, t=3 h
  Antimicrobial activity on co-administration with S16 compared to compounds alone (log change in CFU/mL): antagonism
[4]; A. baumannii, 3 h
  MBC in combination: 7.6 µM
[4]; antibiotic in combination with S16, A. baumannii, 3 h, Bliss Independence model
  Synergistic? (Yes/No) Bliss*: No
[4]; antibiotic in combination with S16, A. baumannii, 3 h, Highest Single Agent model
  Synergistic? (Yes/No) HAS*: No
[5]; P. aeruginosa wild-type, 3 h time point
  Interaction with S16 as evaluated by the Bliss Independence and HSA models (in words): non-synergistic
[5]; P. aeruginosa wild-type, all compounds at MBC50, t=3 h
  Antimicrobial activity on co-administration with S16 compared to compounds alone (log change in CFU/mL): antagonism
[5]; P. aeruginosa, 3 h
  MBC in combination: 1.9 µM
[5]; antibiotic in combination with S16, P. aeruginosa, 3 h, Bliss Independence model
  Synergistic? (Yes/No) Bliss*: No
[5]; antibiotic in combination with S16, P. aeruginosa, 3 h, Highest Single Agent model
  Synergistic? (Yes/No) HAS*: No
[6]; 3 h time point
  Interaction with S16 as evaluated by the Bliss Independence and HSA models (in words): non-synergistic
[6]
  MBC in combination: 2190.3 µM
[6]; all compounds at MBC50, t=3 h
  Antimicrobial activity on co-administration with S16 compared to compounds alone (log change in CFU/mL): antagonistic
[6]; [13]
  Synergistic? (Yes/No) Bliss*: No
[6]; [14]
  Synergistic? (Yes/No) HAS*: No
[7]
  MBC: 239 µM (≈ 112 µg/mL)
[8]
  MBC: > 2190 µM
[9]
  MBC: 15.2 µM (≈ 7.11 µg/mL)
[10]
  MBC: 3.9 µM (≈ 1.82 µg/mL)
[2]
  Susceptibility: Resistant
[1]; [11]
  MIC: > 2190 µM
[1]; [12]
  Susceptibility: Resistant

## NCC[C@H](O)C(=O)N[C@@H]1C[C@H](N)[C@@H](O[C@H]2O[C@H](CN)[C@@H](O)[C@H](O)[C@H]2O)[C@H](O)[C@H]1O[C@H]1O[C@H](CO)[C@@H](O)[C@H](N)[C@H]1O [Amikacin]
[1]; [11]
  MIC: ≥ 109 µM
[1]; [12]
  Susceptibility: Resistant

## C[C@@H](O)[C@H]1C(=O)N2C(C(=O)O)=C(S[C@@H]3CN[C@H](C(=O)N(C)C)C3)[C@H](C)[C@H]12 [Meropenem]
[1]; [11]
  MIC: ≥ 41.7 µM
[1]; [12]
  Susceptibility: Resistant

## CCN1CCN(C(=O)N[C@@H](C(=O)N[C@@H]2C(=O)N3[C@@H]2SC(C)(C)[C@@H]3C(=O)O)c2ccccc2)C(=O)C1=O [Piperacillin]
[2]
  Susceptibility: Resistant

## C[C@H]1c2cccc(O)c2C(=O)C2=C(O)[C@]3(O)C(=O)C(C(N)=O)=C(O)[C@@H](N(C)C)[C@@H]3[C@@H](O)[C@@H]21 [Dox, doxycycline]
[3]; MBCeff with S16 versus MBC alone
  Fold reduction of MBC: 4.2 fold
[3]
  MBC in combination: 295.3 µM
[3]; [15]
  MBC in combination, MBCeff: 148.2^a μM
[5]; P. aeruginosa, 3 h
  MBC in combination: 25.3 µM
[7]
  MBC: 630 µM (≈ 280 µg/mL)
[10]
  MBC: 50.7 µM (≈ 22.5 µg/mL)

## O=C1CN(/N=C/c2ccc([N+](=O)[O-])o2)C(=O)N1 [Nitrofurantoin]
[1]; [11]
  MIC: ≥ 2150 µM

## CC1(C)S[C@@H]2[C@H](NC(=O)[C@H](C(=O)O)c3ccsc3)C(=O)N2[C@H]1C(=O)O [Ticarcillin]
[2]
  Susceptibility: Resistant

## C[C@H]1[C@H](NC(=O)/C(=N\OC(C)(C)C(=O)O)c2csc(N)n2)C(=O)N1S(=O)(=O)O [Aztreonam]
[2]
  Susceptibility: Resistant

## O=C(O)c1cn(C2CC2)c2cc(N3CCNCC3)c(F)cc2c1=O [Ciprofloxacin]
[1]; [11]
  MIC: ≥ 12.1 µM

## Colistin Sulfate
[2]
  Susceptibility, concentration in parentheses: > 110.8 µM
  Susceptibility: Resistant
[1]; [12]
  Susceptibility: Resistant
[1]; CMDR A. baumannii (FADDI-AB156), read-out: MIC
  MIC: 13.8 µM

## COc1cc(Cc2cnc(N)nc2N)cc(OC)c1OC [Trimethoprim]
[1]; [11]
  MIC: ≥ 55.1 µM
[1]; [12]
  Susceptibility: Resistant

## CO/N=C(\C(=O)N[C@@H]1C(=O)N2C(C(=O)[O-])=C(C[N+]3(C)CCCC3)CS[C@H]12)c1csc(N)n1 [Cefepime]
[1]; [11]
  MIC: ≥ 133 µM
[1]; [12]
  Susceptibility: Resistant

## CCn1cc(C(=O)O)c(=O)c2cc(F)c(N3CCNCC3)cc21 [Norfloxacin]
[1]; [11]
  MIC: ≥ 50.1 µM
[1]; [12]
  Susceptibility: Resistant

## CO/N=C(\C(=O)N[C@@H]1C(=O)N2C(C(=O)O)=C(CSc3nc(=O)c(=O)[nH]n3C)CS[C@H]12)c1csc(N)n1 [Ceftriaxone]
[1]; [11]
  MIC: ≥ 115 µM
[1]; [12]
  Susceptibility: Resistant

## Cc1nnc(SCC2=C(C(=O)O)N3C(=O)[C@@H](NC(=O)Cn4cnnn4)[C@H]3SC2)s1 [Cefazolin]
[1]; [11]
  MIC: ≥ 141 µM
[1]; [12]
  Susceptibility: Resistant

## C[C@@H](O)[C@H]1C(=O)N2C(C(=O)O)=C(SCCN=CN)C[C@H]12 [Imi, imipenem]
[4]; A. baumannii, 3 h
  MBC in combination: 19.0 µM
[6]; MBCeff in combination versus MBC alone
  Fold reduction of MBC: 4.0 fold
[6]
  MBC in combination: 177.4 µM
[6]; [15]
  MBC in combination, MBCeff: 88.2^a μM
[8]
  MBC: 355 µM (≈ 106 µg/mL)
[9]
  MBC: 37.8 µM (≈ 11.3 µg/mL)
[1]; [11]
  MIC: 355 µM (≈ 106 µg/mL)
